For 22 compounds, IC50 results are on record in patent US6787534B2, “Sulfonamide-containing heterocyclic compounds” (Eisai Co., Ltd., priority 1999, dated 2004).

Structures are written as SMILES. ≈ marks a conversion by molar mass, not a printed value.

The subject of the test is aorta pieces of rat (angiogenesis, capillaries formed around the aorta). As to the kind of experiment: Antiangiogenic effect: inhibition of capillary formation around rat aorta pieces incubated in collagen. Format: cell-based, rat (Sprague-Dawley). The note with it: rat thoracic aorta pieces in Type I collagen gel, MCDB 131 medium; capillaries counted on 7th day from addition of test compound; three-fold dilutions from 10 μg/ml; read-out: IC50 (50% inhibiting concentration of angiogenesis). The method, then:
Pharmacological Experimental Example 1, Antiangiogenic Effect
The inhibition degree of angiogenesis which was observed when aorta pieces of rat were incubated in collagen was defined as an antiangiogenic effect. That is, the thoracic aorta excised from male rat of Sprague-Dawley strain (10-12 weeks age) was washed with a Hanks' solution (Gibco BRL, Gaithersburg, USA) so that fat tissues around there were removed minutely. The aorta was incised to prepare pieces of 2 mm square and they were allowed to stand in a 24-well plate holding the endothelial cells upside. Then, 500 μl of neutralized Type I collagen (Cell Matrix Type I-A; manufactured by Nitta Gelatin) were poured over each well and allowed to stand at room temperature for about 20 minutes in a clean bench to solidify the gel. After confirming that the gel was solidified, 500 μl of MCDB 131 medium (manufactured by Chlorella Kogyo) were added thereto followed by incubating in a CO2 incubator (5% CO2) at 37° C. On the next day, the culture medium was exchanged with 500 μl of MCDB 131 medium containing the test compound and the incubation was continued. After three days, the medium was again exchanged with 500 μl of MCDB 131 medium containing the test compound and, at the stage of the 7th day from the initiation of addition of the test compound, numbers of capillaries formed around the aorta were counted under a microscope. The solution containing the test compound was prepared in a three-fold dilution system where 10 μg/ml was the highest concentration.
Inhibiting rate was calculated from the following formula and 50% inhibiting concentration (IC50) for each test compound was determined.
Inhibiting Rate (%)=(C−T)/Cx100
C: Numbers of capillaries when no compound was added
T: Numbers of capillaries when a compound was added Table 1
Regarding `O=S(=O)(Nc1cnc2c(Br)cccc2c1)c1cccnc1` [Example 1, N-(8-Bromoquinolin-3-yl)-3-pyridinesulfonamide], the IC50 turned out to be 0.49 µg/mL (≈ 1.35 µM).
On to `Cc1cncc(S(=O)(=O)Nc2ccc3c(Br)cccc3n2)c1` [Example 2, N-(5-Bromoquinolin-2-yl)-5-methyl-3-pyridinesulfonamide], for which the IC50 was found to be 0.74 µg/mL (≈ 1.96 µM).
`N#Cc1ccc(S(=O)(=O)Nc2cnc3c(Br)cccc3c2)cc1` [Example 4, N-(8-Bromoquinolin-3-yl)-4-cyanobenzenesulfonamide]: the IC50 is 0.09 µg/mL (≈ 0.232 µM).
In the case of `CCNS(=O)(=O)c1ccc(S(=O)(=O)Nc2cnc3c(Br)cccc3c2)cc1` [Example 6, N-(8-Bromoquinolin-3-yl)-4-(N-ethylsulfamoyl)benzenesulfonamide], the IC50 worked out at 0.12 µg/mL (≈ 0.255 µM).
With `O=S(=O)(Nc1cnc2c(Br)cccc2c1)c1ccc2c(c1)CCC2` [Example 11, N-(8-Bromoquinolin-3-yl)-5-indanesulfonamide] the figure was 0.04 µg/mL (≈ 0.0992 µM); with `O=S(=O)(Nc1cnc2c(I)cccc2c1)c1cncc2ccccc12` [Example 15, N-(8-Iodoquinolin-3-yl)-4-isoquinolinesulfonamide], 0.87 µg/mL (≈ 1.89 µM); with `N#Cc1ccc(S(=O)(=O)Nc2ccc3c(Cl)cccc3n2)cc1` [Example 24, 4-Cyano-N-(5-chloroquinolin-2-yl)-benzenesulfonamide], 0.49 µg/mL (≈ 1.43 µM).
With `CCNS(=O)(=O)c1ccc(S(=O)(=O)Nc2ccc3c(Br)cccc3n2)cc1` [Example 27, N-(5-Bromoquinolin-2-yl)-4-(N-ethylsulfamoyl)benzenesulfonamide] the figure was 0.08 µg/mL (≈ 0.17 µM).
For `N#Cc1ccc(S(=O)(=O)Nc2cnc3c(C(F)(F)F)cccc3c2)cc1` [Example 38, N-(8-Trifluoromethylquinolin-3-yl)-4-cyanobenzenesulfonmide], the IC50 worked out at 0.15 µg/mL (≈ 0.398 µM).
As for `O=S(=O)(Nc1cnc2c(Br)cccc2c1)c1ccc2c(c1)SCCO2` [Example 47, N-(8-Bromoquinolin-3-yl) -4-oxa-7-thiochromansulfonamide], the IC50 was found to be 0.09 µg/mL (≈ 0.206 µM).
The figure for `CC(=O)NCCc1ccc(S(=O)(=O)Nc2cnc3c(Br)cccc3c2)cc1` [Example 48, N-(8-Bromoquinolin-3-yl)-4-(2-acetamideethyl)benzenesulfonamide] is 0.35 µg/mL (≈ 0.781 µM); for `O=S1(=O)CCCc2cc(S(=O)(=O)Nc3cnc4c(Br)cccc4c3)ccc21` [Example 50, N-(8-Bromoquinolin-3-yl) -1,1-dioxide-6-yl-sulfonamide] it is 0.31 µg/mL (≈ 0.663 µM); for `COc1ccc(S(=O)(=O)Nc2cnc3c(Br)cccc3c2)nn1` [Example 53] it is 0.53 µg/mL (≈ 1.34 µM).
With `O=S(=O)(Nc1ccc2c(Br)cncc2c1)c1ccc(Cl)nc1` [Example 59, N-(4-Bromoisoquinolin-7-yl)-6-chloro-3-pyridinesulfonamide] the figure was 0.2 µg/mL (≈ 0.502 µM); with `N#Cc1ccc(S(=O)(=O)Nc2ccc3c(Cl)nccc3c2)cc1` [Example 61, 1-Chloro-6-(4-cyanobenzenesulfonylamino)isoquinoline], 0.3 µg/mL (≈ 0.873 µM).
With `COc1nccc2cc(NS(=O)(=O)c3ccc(N)nc3)ccc12` [Example 69, 6-(2-Aminopyridin-5-ylsulfonylamino)-1-methoxyisoquinoline] the figure was 0.15 µg/mL (≈ 0.454 µM).
As for `COc1nccc2cc(NS(=O)(=O)c3ccc(-c4nccs4)cc3)ccc12` [Example 77, 1-Methoxy-6-(4-thiazol-2-ylbenzenesulfonylamino)isoquinoline], the IC50 came out at 0.39 µg/mL (≈ 0.981 µM).
The figure for `CCc1nccc2cc(NS(=O)(=O)c3ccc(Cl)cc3)ccc12` [Example 80, 6-(4-Chlorobenzenesulfonylamino)-1-ethylisoquinoline] is 0.2 µg/mL (≈ 0.577 µM).
Take `CCc1cncc2ccc(NS(=O)(=O)c3ccc(Cl)cc3)cc12` [Example 81]: the IC50 was determined as 0.85 µg/mL (≈ 2.45 µM).
For `N#Cc1nccc2cc(NS(=O)(=O)c3ccc(Cl)cc3)ccc12` [Example 84, 6-(4-Chlorobenzenesulfonylamino)-1-cyanoisoquinoline], the IC50 is 0.14 µg/mL (≈ 0.407 µM).
On to `C=Cc1cccc2nc(NS(=O)(=O)c3cccnc3)ccc12` [Example 91, N-(5-Vinylquinolin-2-yl)-3-pyridinesulfonamide], for which the IC50 came to 0.33 µg/mL (≈ 1.06 µM).
The figure for `O=c1cc(C(F)(F)F)c2ccc(NS(=O)(=O)c3ccc(Cl)cc3)cc2o1` [Example 92, N-(4-Trifluoromethylcoumarin-7-yl)-4-chlorobenzenesulfonamide] is 0.2 µg/mL (≈ 0.495 µM).
